Experimental data taken from patent publication US20260125421A1, “ANTIVIRAL COMPOUNDS” (Hoffmann-La Roche Inc., priority 2022, published 2026).

Columns and labels:
Experiment in all cases: biochemical
HCoV-229E 3CL^pro = biological target: T1, HCoV-229E 3CL^pro (Human coronavirus 229E, UniProt P0C6X1)
T1 construct: […]; made in house; host or cells: E. coli BL21 (DE3)

SARS-CoV-2 3CL^pro = biological target: T2, SARS-CoV-2 3CL^pro (Severe acute respiratory syndrome coronavirus 2, UniProt P0DTD1)
T2 construct: […]; made in house; host or cells: Escherichia coli

MERS-CoV 3CL^pro = MERS-CoV 3CL^pro (Middle East respiratory syndrome-related coronavirus, UniProt K9N7C7)
Sequence of MERS-CoV 3CL^pro (K9N7C7 3248-3553): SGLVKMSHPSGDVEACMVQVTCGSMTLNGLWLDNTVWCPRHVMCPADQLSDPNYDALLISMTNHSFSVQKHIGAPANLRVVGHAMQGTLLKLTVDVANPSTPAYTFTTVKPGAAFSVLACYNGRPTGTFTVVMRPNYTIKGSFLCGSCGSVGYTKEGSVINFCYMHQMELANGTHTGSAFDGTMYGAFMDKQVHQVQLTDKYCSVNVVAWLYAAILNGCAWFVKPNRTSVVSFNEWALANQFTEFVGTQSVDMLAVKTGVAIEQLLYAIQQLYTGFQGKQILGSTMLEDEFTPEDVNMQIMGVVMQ

SARS-CoV 3CL^pro = SARS-CoV 3CL^pro (Severe acute respiratory syndrome coronavirus, UniProt P0C6X7)

T1 sequence (P0C6X1 2966-3267): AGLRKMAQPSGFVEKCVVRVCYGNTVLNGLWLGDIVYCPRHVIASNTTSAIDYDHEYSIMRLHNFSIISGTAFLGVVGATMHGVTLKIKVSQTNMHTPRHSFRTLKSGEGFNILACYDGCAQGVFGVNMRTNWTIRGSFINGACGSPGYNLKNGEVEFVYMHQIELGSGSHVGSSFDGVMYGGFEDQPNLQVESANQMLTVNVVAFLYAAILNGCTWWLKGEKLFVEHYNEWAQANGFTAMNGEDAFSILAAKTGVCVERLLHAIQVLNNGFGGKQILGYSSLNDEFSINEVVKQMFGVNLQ

| SMILES | IC50 (HCoV-229E 3CL^pro) [nM] | IC50 (SARS-CoV-2 3CL^pro) [nM] | IC50 (MERS-CoV 3CL^pro) [nM] | IC50 (SARS-CoV 3CL^pro) [nM] |
| --- | --- | --- | --- | --- |
| CC1(C)C[C@@H](CN(NC(=O)[C@@H]2[C@@H]3[C@H](CN2C(=O)[C@@H](NC(=O)[C@@H](F)Cl)C(C)(C)C)C3(C)C)C(=O)[C@@H](F)Cl)C(=O)N1 [Example 22, (2S)-2-chloro-N-[(1S)-1-[(1R,2S,5S)-2-[[[(2S)-2-chloro-2-fluoro-acetyl]-[[(3S)-5,5-dimethyl-2-oxo-pyrrolidin-3-yl]methyl]amino]carbamoyl]-6,6-dimethyl-3-azabicyclo[3.1.0]hexane-3-carbonyl]-2,2-dimethyl-propyl]-2-fluoro-acetamide] | 3520 | 31 | 1870 | 48 |
| C[C@H]1C[C@@H](CN(NC(=O)[C@@H]2[C@H]3CCC[C@H]3CN2C(=O)[C@@H](NC(=O)[C@@H]2CC2(F)F)C(C)(C)C)C(=O)[C@H](F)Cl)C(=O)N1 [Example 27, (1S)-N-[(1S)-1-[(3S,3aS,6aR)-3-[[[(2R)-2-chloro-2-fluoro-acetyl]-[[(3S,5S)-5-methyl-2-oxo-pyrrolidin-3-yl]methyl]amino]carbamoyl]-3,3a,4,5,6,6a-hexahydro-1H-cyclopenta[c]pyrrole-2-carbonyl]-2,2-dimethyl-propyl]-2,2-difluoro-cyclopropanecarboxamide] | 30 | 6 | 63 | 10 |
| CCC(CC)[C@H](NC(=O)[C@@H](F)Cl)C(=O)N1C[C@@H]2CCC[C@@H]2[C@H]1C(=O)NN(C[C@@H]1CC(C)(C)NC1=O)C(=O)[C@@H](F)Cl [Example 13, (2S)-N-[(1S)-1-[(3S,3aS,6aR)-3-[[[(2S)-2-chloro-2-fluoro-acetyl]-[[(3S)-5,5-dimethyl-2-oxo-pyrrolidin-3-yl]methyl]amino]carbamoyl]-3,3a,4,5,6,6a-hexahydro-1H-cyclopenta[c]pyrrole-2-carbonyl]-2-ethyl-butyl]-2-chloro-2-fluoro-acetamide] | 401 | 9 | 263 | 11 |
| CC1(C)C[C@@H](CN(NC(=O)[C@@H]2[C@H]3CCC[C@H]3CN2C(=O)[C@@H](NC(=O)[C@H](F)Cl)C(C)(C)C)C(=O)[C@H](F)Cl)C(=O)N1 [Example 14, (2R)-N-[(1S)-1-[(3S,3aS,6aR)-3-[[[(2R)-2-chloro-2-fluoro-acetyl]-[[(3S)-5,5-dimethyl-2-oxo-pyrrolidin-3-yl]methyl]amino]carbamoyl]-3,3a,4,5,6,6a-hexahydro-1H-cyclopenta[c]pyrrole-2-carbonyl]-2,2-dimethyl-propyl]-2-chloro-2-fluoro-acetamide] | 1270 | 9 | 1240 | 9 |
| C[C@H]1C[C@H](CN(NC(=O)[C@@H]2[C@H]3CCC[C@H]3CN2C(=O)[C@@H](NC(=O)[C@@H]2CC2(F)F)C(C)(C)C)C(=O)[C@H](F)Cl)C(=O)N1 [Example 28, (1S)-N-[(1S)-1-[(3S,3aS,6aR)-3-[[[(2R)-2-chloro-2-fluoro-acetyl]-[[(3R,5S)-5-methyl-2-oxo-pyrrolidin-3-yl]methyl]amino]carbamoyl]-3,3a,4,5,6,6a-hexahydro-1H-cyclopenta[c]pyrrole-2-carbonyl]-2,2-dimethyl-propyl]-2,2-difluoro-cyclopropanecarboxamide] | 492 | 30 | 1160 | 74 |
| CCC(CC)[C@H](NC(=O)C(F)F)C(=O)N1C[C@@H]2CCC[C@@H]2[C@H]1C(=O)NN(C[C@H]1CC(C)(C)NC1=O)C(=O)[C@@H](F)Cl [Example 18, N-[(1S)-1-[(3S,3aS,6aR)-3-[[[(2S)-2-chloro-2-fluoro-acetyl]-[[(3R)-5,5-dimethyl-2-oxo-pyrrolidin-3-yl]methyl]amino]carbamoyl]-3,3a,4,5,6,6a-hexahydro-1H-cyclopenta[c]pyrrole-2-carbonyl]-2-ethyl-butyl]-2,2-difluoro-acetamide] | 332 | 12 | 345 | 23 |
| C[C@@H]1C[C@H](CN(NC(=O)[C@@H]2[C@@H]3[C@H](CN2C(=O)[C@@H](NC(=O)[C@@H]2CC2(F)F)C(C)(C)C)C3(C)C)C(=O)[C@@H](F)Cl)C(=O)N1 [Example 32, (1S)-N-[(1S)-1-[(1R,2S,5S)-2-[[[(2S)-2-chloro-2-fluoro-acetyl]-[[(3R,5R)-5-methyl-2-oxo-pyrrolidin-3-yl]methyl]amino]carbamoyl]-6,6-dimethyl-3-azabicyclo[3.1.0]hexane-3-carbonyl]-2,2-dimethyl-propyl]-2,2-difluoro-cyclopropanecarboxamide] | 70 | 65 | 200 | 116 |
| CC1(C)C[C@@H](CN(NC(=O)[C@@H]2[C@@H]3[C@H](CN2C(=O)[C@@H](NC(=O)[C@@H]2CC2(F)F)C(C)(C)C)C3(C)C)C(=O)[C@H](F)Cl)C(=O)N1 [Example 21, (1S)-N-[(1S)-1-[(1R,2S,5S)-2-[[[(2R)-2-chloro-2-fluoro-acetyl]-[[(3S)-5,5-dimethyl-2-oxo-pyrrolidin-3-yl]methyl]amino]carbamoyl]-6,6-dimethyl-3-azabicyclo[3.1.0]hexane-3-carbonyl]-2,2-dimethyl-propyl]-2,2-difluoro-cyclopropanecarboxamide] | 778 | 14 | 402 | 22 |
| CC1(C)C[C@H](CN(NC(=O)[C@@H]2[C@H]3CCC[C@H]3CN2C(=O)[C@@H](NC(=O)[C@@H]2CC2(F)F)C(C)(C)C)C(=O)[C@@H](F)Cl)C(=O)N1 [Example 2b, (1S)—N-[(1S)-1-[(3S,3aS,6aR)-3-[[[(2S)-2-chloro-2-fluoro-acetyl]-[[(3R)-5,5-dimethyl-2-oxo-pyrrolidin-3-yl]methyl]amino]carbamoyl]-3,3a,4,5,6,6a-hexahydro-1H-cyclopenta[c]pyrrole-2-carbonyl]-2,2-dimethyl-propyl]-2,2-difluoro-cyclopropanecarboxamide] | > 10000 | 918 | > 10000 | 1720 |
| CC1(C)C[C@@H](CN(NC(=O)[C@@H]2[C@H]3CCC[C@H]3CN2C(=O)[C@@H](NC(=O)[C@@H](F)Cl)C(C)(C)C)C(=O)[C@@H](F)Cl)C(=O)N1 [Example 17] | 4260 | 16 | 1870 | 19 |
| CC1(C)C[C@@H](CN(NC(=O)[C@@H]2[C@@H]3[C@H](CN2C(=O)[C@@H](NC(=O)[C@@H]2CC2(F)F)C(C)(C)C)C3(C)C)C(=O)[C@@H](F)Cl)C(=O)N1 [Example 23, (1S)-N-[(1S)-1-[(1R,2S,5S)-2-[[[(2S)-2-chloro-2-fluoro-acetyl]-[[(3S)-5,5-dimethyl-2-oxo-pyrrolidin-3-yl]methyl]amino]carbamoyl]-6,6-dimethyl-3-azabicyclo[3.1.0]hexane-3-carbonyl]-2,2-dimethyl-propyl]-2,2-difluoro-cyclopropanecarboxamide] | 5430 | 54 | 2080 | 85 |
| CC1(C)C[C@@H](CN(NC(=O)[C@@H]2[C@H]3CCC[C@H]3CN2C(=O)[C@@H](NC(=O)C(F)F)C(C)(C)C)C(=O)[C@H](F)Cl)C(=O)N1 [Example 11, N-[(1S)-1-[(3S,3aS,6aR)-3-[[[(2R)-2-chloro-2-fluoro-acetyl]-[[(3S)-5,5-dimethyl-2-oxo-pyrrolidin-3-yl]methyl]amino]carbamoyl]-3,3a,4,5,6,6a-hexahydro-1H-cyclopenta[c]pyrrole-2-carbonyl]-2,2-dimethyl-propyl]-2,2-difluoro-acetamide] | 1690 | 9 | 909 | 14 |
| CC[C@H](C)[C@H](NC(=O)C1(F)CC1)C(=O)N1C[C@H]2[C@@H]([C@H]1C(=O)NN(C[C@@H]1CC(C)(C)NC1=O)C(=O)[C@H](F)Cl)C2(C)C [Example 1a, N-[(1S,2S)-1-[(1R,2S,5S)-2-[[[(2R)-2-chloro-2-fluoro-acetyl]-[[(3S)-5,5-dimethyl-2-oxo-pyrrolidin-3-yl]methyl]amino]carbamoyl]-6,6-dimethyl-3-azabicyclo[3.1.0]hexane-3-carbonyl]-2-methyl-butyl]-1-fluoro-cyclopropanecarboxamide] | 421 | 48 | 635 | 84 |
| CC1(C)C[C@@H](CN(NC(=O)[C@@H]2[C@H]3CCC[C@H]3CN2C(=O)[C@@H](NC(=O)C(F)F)C(C)(C)C)C(=O)[C@@H](F)Cl)C(=O)N1 [Example 6, N-[(1S)-1-[(3S,3aS,6aR)-3-[[[(2S)-2-chloro-2-fluoro-acetyl]-[[(3S)-5,5-dimethyl-2-oxo-pyrrolidin-3-yl]methyl]amino]carbamoyl]-3,3a,4,5,6,6a-hexahydro-1H-cyclopenta[c]pyrrole-2-carbonyl]-2,2-dimethyl-propyl]-2,2-difluoro-acetamide] | > 10000 | 30 | 2950 | 41 |
| C[C@@H]1C[C@@H](CN(NC(=O)[C@@H]2[C@H]3CCC[C@H]3CN2C(=O)[C@@H](NC(=O)[C@@H]2CC2(F)F)C(C)(C)C)C(=O)[C@@H](F)Cl)C(=O)N1 [Example 30, (1S)-N-[(1S)-1-[(3S,3aS,6aR)-3-[[[(2S)-2-chloro-2-fluoro-acetyl]-[[(3S,5R)-5-methyl-2-oxo-pyrrolidin-3-yl]methyl]amino]carbamoyl]-3,3a,4,5,6,6a-hexahydro-1H-cyclopenta[c]pyrrole-2-carbonyl]-2,2-dimethyl-propyl]-2,2-difluoro-cyclopropanecarboxamide] | 66 | 8 | 91 | 11 |
